Reference: patent US20110269811A1, “INHIBITORS OF SEMICARBAZIDE-SENSITIVE AMINE OXIDASE (SSAO) AND VAP-1 MEDIATED ADHESION USEFUL FOR TREATMENT AND PREVENTION OF DISEASES” (priority 2006, published 2011)

Tests used:
[1] = test system: LPS-induced lung inflammation; test: LPS-induced pulmonary inflammation in rats; format: in vivo, Sprague Dawley rats; settings: FIG. 14
Procedure: LPS-induced pulmonary inflammation in rats is a widely used model of airway inflammation ([…] et al. (2002) J. Pharmacol. Exp. Ther. 302:127). For the experiment described here, groups of Sprague-Dawley female rats (180-200 g) were orally dosed with either a compound of the invention (1 or 10 mg/kg), or with vehicle 1 h before the LPS challenge. Animals were placed in a plexiglass chamber and LPS at 100 μg/ml was nebulized for ten minutes. The nebulizer was turned off for ten minutes, then the chamber was evacuated for a further ten minutes. The animals remained in the chamber throughout this 30 minute cycle. Animals were then returned to their cages for the remainder of the experiment. Four hours after exposure to LPS animals were sacrificed and lungs excised. Lungs were washed with three cycles of 3 ml RPMI 1640 medium and the lavage fluid combined. Cells were pelleted by centrifugation and washed in the same medium. Total cell counts were performed using a hemacytometer. Differential cell counts were conducted on Cytospin-prepared slides stained with Diff-Quick stain. Standard morphological criteria were used to define mononuclear and neutrophilic cells. Using the above protocol, an experiment to assess the effects of compound I-1-Z was carried out. Groups of four female Sprague Dawley rats were orally administered PBS, compound I-1-Z at the indicated doses, or dexamethasone at 3 mg/kg. […]

[2] = biological target: T1, B2 (h) (Homo sapiens, UniProt P30411); test: Receptor binding screen, [^3H]bradykinin; settings: 10 uM Concentration of Compound I-1-Z; read-out: Mean Value, percent inhibition of control specific binding: B2 (h)
T1 construct: expressed in transfected cells; host or cells: CHO cells
T1 sequence (P30411 whole entry): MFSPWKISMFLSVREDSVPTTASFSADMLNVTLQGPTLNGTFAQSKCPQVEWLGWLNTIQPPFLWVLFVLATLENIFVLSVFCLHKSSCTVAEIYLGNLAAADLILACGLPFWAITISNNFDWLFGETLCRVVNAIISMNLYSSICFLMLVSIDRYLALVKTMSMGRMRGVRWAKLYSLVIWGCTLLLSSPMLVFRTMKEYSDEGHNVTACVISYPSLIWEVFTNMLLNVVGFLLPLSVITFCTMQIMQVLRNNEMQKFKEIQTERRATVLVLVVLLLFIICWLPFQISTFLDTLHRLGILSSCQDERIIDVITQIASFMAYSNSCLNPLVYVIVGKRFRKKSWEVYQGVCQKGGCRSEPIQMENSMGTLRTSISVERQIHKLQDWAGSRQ

[3] = biological target: T2, D3 (h) (Homo sapiens, UniProt P35462); test: Receptor binding screen, [^3H]spiperone; settings: 10 uM Concentration of Compound I-1-Z; read-out: Mean Value, percent inhibition of control specific binding: D3 (h)
T2 construct: expressed in transfected cells; host or cells: CHO cells
T2 sequence (P35462 whole entry): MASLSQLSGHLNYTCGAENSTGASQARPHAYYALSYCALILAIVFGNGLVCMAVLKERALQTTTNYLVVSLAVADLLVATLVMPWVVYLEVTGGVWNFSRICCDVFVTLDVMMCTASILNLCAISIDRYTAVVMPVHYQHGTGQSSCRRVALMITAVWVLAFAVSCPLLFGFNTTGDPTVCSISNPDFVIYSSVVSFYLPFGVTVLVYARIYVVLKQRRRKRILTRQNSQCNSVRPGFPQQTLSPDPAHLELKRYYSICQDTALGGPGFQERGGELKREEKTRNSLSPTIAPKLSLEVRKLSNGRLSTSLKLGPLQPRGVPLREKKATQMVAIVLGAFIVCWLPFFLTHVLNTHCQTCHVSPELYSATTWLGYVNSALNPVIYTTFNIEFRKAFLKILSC

[4] = biological target: T3, D5 (h) (Homo sapiens, UniProt P21918); test: Receptor binding screen, [^3H]SCH 23390; settings: 10 uM Concentration of Compound I-1-Z; read-out: Mean Value, percent inhibition of control specific binding: D5 (h)
T3 construct: expressed in transfected cells; host or cells: GH4 cells
T3 sequence (P21918 whole entry): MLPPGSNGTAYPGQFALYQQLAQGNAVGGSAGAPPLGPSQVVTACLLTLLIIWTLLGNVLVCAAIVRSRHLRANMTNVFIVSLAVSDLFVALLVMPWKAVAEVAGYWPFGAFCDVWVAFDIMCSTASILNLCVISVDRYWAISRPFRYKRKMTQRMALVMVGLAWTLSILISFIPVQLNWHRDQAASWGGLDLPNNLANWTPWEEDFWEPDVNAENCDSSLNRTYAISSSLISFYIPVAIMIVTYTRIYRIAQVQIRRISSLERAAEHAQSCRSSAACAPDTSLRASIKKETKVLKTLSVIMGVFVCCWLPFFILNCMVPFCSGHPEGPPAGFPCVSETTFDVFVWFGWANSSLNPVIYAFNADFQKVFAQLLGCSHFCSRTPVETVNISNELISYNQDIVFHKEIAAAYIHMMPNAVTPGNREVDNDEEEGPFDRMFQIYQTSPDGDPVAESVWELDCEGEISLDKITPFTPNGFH

[5] = test system: GABA (non-selective); test: Receptor binding screen, [^3H]GABA; parameters: species or system rat; settings: 10 uM Concentration of Compound I-1-Z
Procedure: (§1) For Table 4 below, the specific ligand binding to the receptors is defined as the difference between the total binding and the nonspecific binding determined in the presence of an excess of unlabelled ligand. The results are expressed as a percent inhibition of control specific binding obtained in the presence of Compound I-1-Z. The IC50 values (concentration causing a half-maximal inhibition of control specific binding) and Hill coefficients (nH) were determined by non-linear regression analysis of the competition curves using Hill equation curve fitting. The inhibition constants (Ki) were calculated from the Cheng Prusoff equation (Ki=IC50/(1+(L/KD)), where L=concentration of radioligand in the assay, and KD=affinity of the radioligand for the receptor). In each experiment, the respective reference compound was tested concurrently with Compound I-1-Z in order to assess the assay suitability.

[6] = biological target: T4, M3 (h) (Homo sapiens, UniProt P20309); test: Receptor binding screen, [^3H]4-DAMP; settings: 10 uM Concentration of Compound I-1-Z; read-out: Mean Value, percent inhibition of control specific binding: M3 (h)
T4 construct: expressed in transfected cells; host or cells: CHO cells
T4 sequence (P20309 whole entry): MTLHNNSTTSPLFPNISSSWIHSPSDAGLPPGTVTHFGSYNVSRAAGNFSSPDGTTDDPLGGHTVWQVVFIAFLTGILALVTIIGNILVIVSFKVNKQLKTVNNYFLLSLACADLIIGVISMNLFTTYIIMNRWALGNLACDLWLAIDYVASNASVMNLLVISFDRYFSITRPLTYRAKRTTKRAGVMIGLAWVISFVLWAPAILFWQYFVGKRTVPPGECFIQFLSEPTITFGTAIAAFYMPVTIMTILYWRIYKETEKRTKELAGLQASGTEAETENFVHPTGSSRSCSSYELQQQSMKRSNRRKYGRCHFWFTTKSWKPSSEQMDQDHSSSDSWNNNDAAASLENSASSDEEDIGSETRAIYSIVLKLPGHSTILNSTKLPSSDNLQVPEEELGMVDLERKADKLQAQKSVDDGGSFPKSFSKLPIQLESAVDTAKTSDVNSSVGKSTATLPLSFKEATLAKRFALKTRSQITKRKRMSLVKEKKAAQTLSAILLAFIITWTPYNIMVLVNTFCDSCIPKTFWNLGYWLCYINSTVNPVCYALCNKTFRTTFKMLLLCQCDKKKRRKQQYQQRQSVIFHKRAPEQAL

[7] = biological target: T5, M5 (h) (Homo sapiens, UniProt P08912); test: Receptor binding screen, [^3H]4-DAMP; settings: 10 uM Concentration of Compound I-1-Z; read-out: Mean Value, percent inhibition of control specific binding: M5 (h)
T5 construct: expressed in transfected cells; host or cells: CHO cells
T5 sequence (P08912 whole entry): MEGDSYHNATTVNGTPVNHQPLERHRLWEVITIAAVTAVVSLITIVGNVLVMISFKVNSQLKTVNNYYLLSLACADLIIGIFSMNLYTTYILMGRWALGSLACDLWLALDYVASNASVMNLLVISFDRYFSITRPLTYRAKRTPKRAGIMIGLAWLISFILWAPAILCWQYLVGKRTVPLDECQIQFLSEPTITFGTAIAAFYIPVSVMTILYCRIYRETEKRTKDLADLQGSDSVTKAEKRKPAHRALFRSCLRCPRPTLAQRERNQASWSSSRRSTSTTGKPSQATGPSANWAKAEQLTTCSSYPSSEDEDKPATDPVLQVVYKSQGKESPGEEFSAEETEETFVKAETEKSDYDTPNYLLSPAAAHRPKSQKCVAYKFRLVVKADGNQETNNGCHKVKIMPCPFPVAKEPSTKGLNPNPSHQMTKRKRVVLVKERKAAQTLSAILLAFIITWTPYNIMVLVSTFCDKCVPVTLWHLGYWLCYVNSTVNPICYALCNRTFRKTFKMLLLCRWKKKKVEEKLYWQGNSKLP

[8] = biological target: T6, ORL1 (h) (NOP) (Homo sapiens, UniProt P41146); test: Receptor binding screen, [^3H]nociceptin; settings: 10 uM Concentration of Compound I-1-Z; read-out: Mean Value, percent inhibition of control specific binding: ORL1 (h) (NOP)
T6 construct: expressed in transfected cells; host or cells: HEK-293 cells
T6 sequence (P41146 whole entry): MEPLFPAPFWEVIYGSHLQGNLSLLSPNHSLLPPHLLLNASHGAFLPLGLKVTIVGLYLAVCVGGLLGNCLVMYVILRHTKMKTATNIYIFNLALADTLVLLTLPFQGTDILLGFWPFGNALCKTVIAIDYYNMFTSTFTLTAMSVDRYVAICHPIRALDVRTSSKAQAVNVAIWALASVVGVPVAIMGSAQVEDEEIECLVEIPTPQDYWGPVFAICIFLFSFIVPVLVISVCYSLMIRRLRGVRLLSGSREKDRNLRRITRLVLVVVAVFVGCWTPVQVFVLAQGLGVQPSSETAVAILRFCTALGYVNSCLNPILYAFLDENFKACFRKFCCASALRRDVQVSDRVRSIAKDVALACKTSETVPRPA
Procedure: as §1

[9] = biological target: T7, 5-HT3 (h) (Homo sapiens, UniProt P46098); test: Receptor binding screen, [^3H]BRL 43694; settings: 10 uM Concentration of Compound I-1-Z; read-out: Mean Value, percent inhibition of control specific binding: 5-HT3 (h)
T7 construct: expressed in transfected cells; host or cells: CHO cells
T7 sequence (P46098 24-478): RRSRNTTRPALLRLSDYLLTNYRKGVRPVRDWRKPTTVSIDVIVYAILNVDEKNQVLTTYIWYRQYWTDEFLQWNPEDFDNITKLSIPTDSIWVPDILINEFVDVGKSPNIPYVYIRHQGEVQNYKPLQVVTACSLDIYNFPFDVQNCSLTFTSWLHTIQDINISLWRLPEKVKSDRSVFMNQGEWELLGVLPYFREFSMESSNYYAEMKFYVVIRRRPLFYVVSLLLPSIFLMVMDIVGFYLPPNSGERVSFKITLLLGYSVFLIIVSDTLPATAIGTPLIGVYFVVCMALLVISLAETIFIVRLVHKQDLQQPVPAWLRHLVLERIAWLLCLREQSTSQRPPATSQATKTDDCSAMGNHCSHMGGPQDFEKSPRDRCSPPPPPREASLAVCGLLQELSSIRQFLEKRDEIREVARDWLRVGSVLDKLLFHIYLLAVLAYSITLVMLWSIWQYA

[10] = test system: σ (non-selective); test: Receptor binding screen, [^3H]DTG; parameters: species or system rat; settings: 10 uM Concentration of Compound I-1-Z
Procedure: as §1

[11] = test system: sst (non-selective); test: Receptor binding screen, [^125I]Tyr^11-somatostatin, AtT-20 cells; settings: 10 uM Concentration of Compound I-1-Z
Procedure: as §1

[12] = test system: K^+V channel; test: Receptor binding screen, [^125I]α-dendrotoxin; parameters: species or system rat; settings: 10 uM Concentration of Compound I-1-Z
[13] = biological target: T8, NE transporter (h) (Homo sapiens, UniProt P23975); test: Receptor binding screen, [^3H]nisoxetine; settings: 10 uM Concentration of Compound I-1-Z; read-out: Mean Value, percent inhibition of control specific binding: NE transporter (h)
T8 construct: expressed in transfected cells; host or cells: CHO cells
T8 sequence (P23975 whole entry): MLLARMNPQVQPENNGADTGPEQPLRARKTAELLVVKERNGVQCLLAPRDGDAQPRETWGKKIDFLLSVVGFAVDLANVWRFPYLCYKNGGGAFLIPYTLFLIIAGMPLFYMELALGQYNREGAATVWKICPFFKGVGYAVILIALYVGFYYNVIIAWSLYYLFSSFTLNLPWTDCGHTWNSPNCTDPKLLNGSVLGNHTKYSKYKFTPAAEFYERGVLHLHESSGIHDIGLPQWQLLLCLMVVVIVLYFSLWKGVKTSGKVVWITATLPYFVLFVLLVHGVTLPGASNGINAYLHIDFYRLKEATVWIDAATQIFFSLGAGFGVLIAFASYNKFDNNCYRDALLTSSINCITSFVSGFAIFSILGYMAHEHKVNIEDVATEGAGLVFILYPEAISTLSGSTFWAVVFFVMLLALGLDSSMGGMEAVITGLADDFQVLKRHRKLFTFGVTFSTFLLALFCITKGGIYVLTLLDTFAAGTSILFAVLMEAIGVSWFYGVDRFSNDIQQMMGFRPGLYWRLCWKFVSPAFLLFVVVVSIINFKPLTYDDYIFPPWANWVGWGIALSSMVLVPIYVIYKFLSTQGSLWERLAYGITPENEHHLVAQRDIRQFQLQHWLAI

[14] = test system: oxazolone-induced colitis; test: Oxazolone-induced colitis; format: in vivo, SJL/J male mice; settings: 30 mg/kg intraperitoneally, day 0 until day 12; FIG. 2A, 2B
Procedure: Oxazolone-induced colitis is a TH2-mediated process that closely resembles ulcerative colitis and is responsive to anti-IL4 therapy ((Strober W. et al (2002) Annu. Rev. Immunol. 20: 495, Boirivant M. et al. (1998) J. Ex. Med. 188: 1929). Oxazolone colitis is induced as described (Fuss I. J. et al. (2002) J. Immunol. 168: 900). Briefly, mice are pre-sensitized by epicutaneous application of 1% oxazolone (4-ethoxymethylene-2-phenyl-2oxazolin-5-one, Sigma) in 100% EtOH (200 μL) on day 0, followed by intrarectal administration of 0.75% oxazolone in 50% EtOH (100 μL) to anesthetized SJL/J male mice on day 5 through a 3.5 F catheter inserted 4 cm proximal to the anal verge. Mice are divided in two treatment groups and injected i.p. twice a day with either PBS or a compound of the invention. Injections are initiated at day 0 and are continued through day 12. Disease progression is evaluated by monitoring body weight and survival.
A study was carried out using the protocol described above for oxazolone-induced colitis. […] Disease progression was evaluated until day 15 (10 days after intrarectal administration) by monitoring survival rates and body weight. When following the above-described protocol, disease severity as measured by body weight drop was maximal at day 11 (6 days after intrarectal challenge), although animals started dying on day 9.

SMILES | LPS-induced lung inflammation ([1]; 1 mg/kg orally before nebulized LPS) | LPS-induced lung inflammation ([1]; 10 mg/kg orally before nebulized LPS) | inhibition at 10 µM [2] | inhibition at 10 µM [3] | inhibition at 10 µM [4] | Mean Value, percent inhibition of control specific binding: GABA (non-selective) [5] | inhibition at 10 µM [6] | inhibition at 10 µM [7] | inhibition at 10 µM [8] | inhibition at 10 µM [9] | Mean Value, percent inhibition of control specific binding: σ (non-selective) [10] | Mean Value, percent inhibition of control specific binding: sst (non-selective) [11] | Mean Value, percent inhibition of control specific binding: K^+V channel [12] | inhibition at 10 µM [13] | survival rates and body weight loss compared with the vehicle group [14]
COc1ccc(C/C(=C/F)CN)cc1.Cl [Compound I-1-Z, (Z)-3-Fluoro-2-(4-methoxybenzyl)-allylamine hydrochloride] | effective in reducing LPS-induced lung inflammation | effective in reducing LPS-induced lung inflammation | 1% | -2% | -10% | −19% | 16% | 27% | -9% | 4% | 24% | −4% | −5% | 68% | 
NC/C(F)=C\Cc1cc(F)cc(C(F)(F)F)c1 [II-1-E, (E)-2-Fluoro-4-(3-fluoro-5-trifluoromethylphenyl)-but-2-enylamine] |  |  |  |  |  |  |  |  |  |  |  |  |  |  | improved survival rates and body weight loss
